Test systems include KM20L2 colon; SN12K1 renal; DLD-1 colon; P388 leukemia; DMS 273 small cell lung; P388/ADR leukemia; HOP-18 NSCLC; LXFL 529 NSCLC.
Common to all, as to assay: NCI tumour cell line growth inhibition, 48 h

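Protocol summary: plate cells (96-well), add compound at 5 concentrations, incubate 48 h, interpolate endpoints linearly. Here, GI50 denotes the concentration required for 50% inhibition of growth. TGI: total growth inhibition.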 A value given as a limit tells only on which side of the number the result lay.

Turning to `O=C1C(Cl)N(c2ccccc2Cl)C1c1c[nH]c2ccccc12` (stereo not drawn), the TGI with KM20L2 colon was more than 100 µM.

For `C=C(C#N)C(=O)OCC(CC)CC.C=C(C#N)C(=O)OCC(CC)CC.CS(C)=O.CS(C)=O.Nc1c(N=Nc2ccc(-c3ccc(N=Nc4cc(S(=O)(=O)[O-])c5ccccc5c4N)cc3)cc2)cc(S(=O)(=O)[O-])c2ccccc12.[Pt+2]`, the GI50 in the test with SN12K1 renal was 19.7 µM; with DLD-1 colon, 28.2 µM; in the test on KM20L2 colon, more than 100 µM; with P388 leukemia, 29.6 µM; in the test on DMS 273 small cell lung, 40.4 µM; with P388/ADR leukemia, 27.2 µM. Moreover, the GI50 in the test with HOP-18 NSCLC was 22 µM. Also, the TGI was 40.1 µM in the test on SN12K1 renal; more than 77.8 µM in the test on DLD-1 colon; more than 100 µM in the test with KM20L2 colon; more than 100 µM in the test with P388 leukemia; more than 100 µM with DMS 273 small cell lung; more than 100 µM in the test on P388/ADR leukemia. The compound also came in with a TGI in the test with HOP-18 NSCLC of 53.9 µM.

As to `COc1ccc2nc3cc(Cl)ccc3c(NC(C)CCCN(CCCl)CCCl)c2c1` (stereo not drawn), the TGI was determined as 4.1 µM with DLD-1 colon, 5.73 µM in the test with KM20L2 colon, 2.27 µM in the test on DMS 273 small cell lung and 2.5 µM with LXFL 529 NSCLC.

For the compound `O=C1c2ccccc2C(=O)c2[nH]cnc21`, the TGI in the test with DLD-1 colon and in the test on DMS 273 small cell lung was more than 100 µM in each case.

With `CCN(CC)CCNc1ccc2ncn3c4ccc(O)cc4c(=O)c1c23`, the TGI in the test with DLD-1 colon turned out to be 15.1 µM; in the test on KM20L2 colon, 14.9 µM; in the test with DMS 273 small cell lung it was 12.5 µM; in the test with LXFL 529 NSCLC, 17.6 µM; in the test with HOP-18 NSCLC, 33.3 µM.

Regarding `C=CCNC(=O)C(C)C1CCC2(C)C=CC(=O)C(C)=C2C1O` (stereo not drawn), the TGI in the test on SN12K1 renal, with DLD-1 colon, in the test on KM20L2 colon, in the test with P388 leukemia, in the test on DMS 273 small cell lung and in the test on P388/ADR leukemia was more than 100 µM in each case. For the same compound, the TGI in the test on HOP-18 NSCLC is more than 100 µM.

Source of the values: PubChem BioAssay (NCI).
